In US20070010671A1, “Novel quinazoline derivatives and methods of treatment related to the use thereof” (priority 2003, published 2007) one finds class data, which are given here for 35 compounds.

The target in the test is MCH receptor (Homo sapiens, UniProt Q99705). Briefly: High throughput functional screening FLIPR/FDSS6000: inhibition of MCH-evoked intracellular Ca2+ changes. The settings on record: class by percent of control at 10^-7 M or IC50. Format: cell-based. The gist of the method:
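Constitutively active non-endogenous MCH-R cells; Fluo4-AM 4 μM, 2.5 mM probenecid, 1 hr, 37° C; cpd 3 min, 37° C; MCH 50 nM (antagonist mode); kinetic Ca2+ read Ex488/Em530, 290 s.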

Take `CN(C)c1nc(N[C@H]2CC[C@@H](CNC(=S)Nc3ccc(OC(F)F)cc3)CC2)nc2ccccc12` [compound 653]: the class was 3 (Class 3: The value of percent of control at 10^−7 M was more than 60% or the value of IC50 was more than 200 nM.).
Under `CN(C)c1nc(N[C@H]2CC[C@@H](CNC(=S)Nc3ccc(OC(F)(F)F)cc3)CC2)nc2ccccc12` [compound 654] stands 3 (Class 3: The value of percent of control at 10^−7 M was more than 60% or the value of IC50 was more than 200 nM.); under `CN(C)c1nc(N[C@H]2CC[C@@H](CNC(=S)Nc3ccc(C(F)(F)F)cc3)CC2)nc2ccccc12` [compound 655], 3 (Class 3: The value of percent of control at 10^−7 M was more than 60% or the value of IC50 was more than 200 nM.).
Under `CN(C)c1nc(N[C@H]2CC[C@@H](CNC(=S)Nc3ccc(SC(F)(F)F)cc3)CC2)nc2ccccc12` [compound 656] stands 3 (Class 3: The value of percent of control at 10^−7 M was more than 60% or the value of IC50 was more than 200 nM.); under `CN(C)c1nc(N[C@H]2CC[C@@H](CNC(=S)Nc3ccc(Br)cc3Cl)CC2)nc2ccccc12` [compound 657], 3 (Class 3: The value of percent of control at 10^−7 M was more than 60% or the value of IC50 was more than 200 nM.).
For the compound `CN(C)c1nc(N[C@H]2CC[C@@H](CNC(=S)Nc3ccc(Br)cc3F)CC2)nc2ccccc12` [compound 658], the class was 3 (Class 3: The value of percent of control at 10^−7 M was more than 60% or the value of IC50 was more than 200 nM.).
As to `CN(C)c1nc(N[C@H]2CC[C@@H](CNC(=S)Nc3ccc(Cl)c(C(F)(F)F)c3)CC2)nc2ccccc12` [compound 659], the class was 3 (Class 3: The value of percent of control at 10^−7 M was more than 60% or the value of IC50 was more than 200 nM.).
As to `CN(C)c1nc(N[C@H]2CC[C@@H](CNC(=S)Nc3ccc(F)c(C(F)(F)F)c3)CC2)nc2ccccc12` [compound 660], the class was 3 (Class 3: The value of percent of control at 10^−7 M was more than 60% or the value of IC50 was more than 200 nM.).
With `CN(C)c1nc(N[C@H]2CC[C@@H](CNC(=S)Nc3ccc(I)cc3)CC2)nc2ccccc12` [compound 661], the class is 3 (Class 3: The value of percent of control at 10^−7 M was more than 60% or the value of IC50 was more than 200 nM.).
In the case of `Cc1ccc(Cl)cc1NC(=S)NC[C@H]1CC[C@@H](Nc2nc(N(C)C)c3ccccc3n2)CC1` [compound 662] it was 2 (Class 2: The value of percent of control at 10^−7 M was from 40% to 60% or the value of IC50 was from 50 nM to 200 nM.); in that of `CN(C)c1nc(N[C@H]2CC[C@@H](CNC(=S)NC3C[C@@H]4CC[C@H]3C4)CC2)nc2ccccc12` (stereo partly drawn) [compound 663, N-[(1S,4R)-bicyclo[2.2.1]hept-2-yl]-N′-[(cis-4-{[4-(dimethylamino)quinazolin-2-yl]amino}cyclohexyl)methyl]thiourea], 2 (Class 2: The value of percent of control at 10^−7 M was from 40% to 60% or the value of IC50 was from 50 nM to 200 nM.); in that of `CN(C)c1nc(N[C@H]2CC[C@@H](CNC(=S)Nc3ccc(NC(=O)OC(C)(C)C)cc3)CC2)nc2ccccc12` [compound 664], 3 (Class 3: The value of percent of control at 10^−7 M was more than 60% or the value of IC50 was more than 200 nM.).
In the case of `COc1ccc(CCNC(=S)NC[C@H]2CC[C@@H](Nc3nc(N(C)C)c4ccccc4n3)CC2)cc1OC` [compound 665, N-[2-(3,4-dimethoxyphenyl)ethyl]-N′-[(cis-4-{[4-(dimethylamino)quinazolin-2-yl]amino}cyclohexyl)methyl]thiourea] it was 2 (Class 2: The value of percent of control at 10^−7 M was from 40% to 60% or the value of IC50 was from 50 nM to 200 nM.).
On to `CN(C)c1nc(N[C@H]2CC[C@@H](CNC(=S)NCCc3ccc(Cl)cc3)CC2)nc2ccccc12` [compound 666], for which the class is 3 (Class 3: The value of percent of control at 10^−7 M was more than 60% or the value of IC50 was more than 200 nM.).
`CN(C)c1nc(N[C@H]2CC[C@@H](CNC(=S)Nc3cc(Cl)c(Cl)c(Cl)c3Cl)CC2)nc2ccccc12` [compound 667]: the class is reported as 3 (Class 3: The value of percent of control at 10^−7 M was more than 60% or the value of IC50 was more than 200 nM.).
In the case of `CN(C)c1nc(N[C@H]2CC[C@@H](CNC(=S)Nc3cc(Cl)c(Cl)cc3Cl)CC2)nc2ccccc12` [compound 668], the class is given as 3 (Class 3: The value of percent of control at 10^−7 M was more than 60% or the value of IC50 was more than 200 nM.).
Take `CN(C)c1nc(N[C@H]2CC[C@@H](CNC(=S)Nc3c(Cl)cc(Cl)cc3Cl)CC2)nc2ccccc12` [compound 670, N-[(cis-4-{[4-(dimethylamino)quinazolin-2-yl]amino}cyclohexyl)methyl]-N′-(2,4,6-trichlorophenyl)thiourea]: the class is on record as 2 (Class 2: The value of percent of control at 10^−7 M was from 40% to 60% or the value of IC50 was from 50 nM to 200 nM.).
In the case of `CN(C)c1nc(N[C@H]2CC[C@@H](CNC(=S)Nc3c(F)cc(F)cc3F)CC2)nc2ccccc12` [compound 671] it was 3 (Class 3: The value of percent of control at 10^−7 M was more than 60% or the value of IC50 was more than 200 nM.).
`Cc1cc(C)c(NC(=S)NC[C@H]2CC[C@@H](Nc3nc(N(C)C)c4ccccc4n3)CC2)c(C)c1` [compound 672, N-[(cis-4-{[4-(dimethylamino)quinazolin-2-yl]amino}cyclohexyl)methyl]-N′-mesitylthiourea]: the class is on record as 2 (Class 2: The value of percent of control at 10^−7 M was from 40% to 60% or the value of IC50 was from 50 nM to 200 nM.).
For the compound `Cc1ccc(NC(=S)NC[C@H]2CC[C@@H](Nc3nc(N(C)C)c4ccccc4n3)CC2)c(C)c1` [compound 673], the class is reported as 3 (Class 3: The value of percent of control at 10^−7 M was more than 60% or the value of IC50 was more than 200 nM.).
Take `CCc1cccc(CC)c1NC(=S)NC[C@H]1CC[C@@H](Nc2nc(N(C)C)c3ccccc3n2)CC1` [compound 674, N-(2,6-diethylphenyl)-N′-[(cis-4-{[4-(dimethylamino)quinazolin-2-yl]amino}cyclohexyl)methyl]thiourea]: the class is 1 (Class 1: The value of percent of control at 10^−7 M was less than 40% or the value of IC50 was less than 50 nM.).
As to `CC(C)c1cccc(C(C)C)c1NC(=S)NC[C@H]1CC[C@@H](Nc2nc(N(C)C)c3ccccc3n2)CC1` [compound 675], the class is listed as 2 (Class 2: The value of percent of control at 10^−7 M was from 40% to 60% or the value of IC50 was from 50 nM to 200 nM.).
For the compound `Cc1ccc(NC(=S)NC[C@H]2CC[C@@H](Nc3nc(N(C)C)c4ccccc4n3)CC2)c(Br)c1` [compound 676], the class was 3 (Class 3: The value of percent of control at 10^−7 M was more than 60% or the value of IC50 was more than 200 nM.).
As to `CN(C)c1nc(N[C@H]2CC[C@@H](CNC(=S)Nc3cc(C(F)(F)F)ccc3Cl)CC2)nc2ccccc12` [compound 677], the class is reported as 3 (Class 3: The value of percent of control at 10^−7 M was more than 60% or the value of IC50 was more than 200 nM.).
In the case of `CN(C)c1nc(N[C@H]2CC[C@@H](CNC(=S)NCc3ccccc3Cl)CC2)nc2ccccc12` [compound 678], the class is 3 (Class 3: The value of percent of control at 10^−7 M was more than 60% or the value of IC50 was more than 200 nM.).
In the case of `CCc1cccc(C)c1NC(=S)NC[C@H]1CC[C@@H](Nc2nc(N(C)C)c3ccccc3n2)CC1` [compound 679] it was 2 (Class 2: The value of percent of control at 10^−7 M was from 40% to 60% or the value of IC50 was from 50 nM to 200 nM.); in that of `CC(C)c1ccccc1NC(=S)NC[C@H]1CC[C@@H](Nc2nc(N(C)C)c3ccccc3n2)CC1` [compound 680, N-[(cis-4-{[4-(dimethylamino)quinazolin-2-yl]amino}cyclohexyl)methyl]-N′-(2-isopropylphenyl)thiourea], 2 (Class 2: The value of percent of control at 10^−7 M was from 40% to 60% or the value of IC50 was from 50 nM to 200 nM.).
In the case of `CSc1cccc(NC(=S)NC[C@H]2CC[C@@H](Nc3nc(N(C)C)c4ccccc4n3)CC2)c1` [compound 681] it was 3 (Class 3: The value of percent of control at 10^−7 M was more than 60% or the value of IC50 was more than 200 nM.); in that of `CN(C)c1nc(N[C@H]2CC[C@@H](CNC(=S)NCc3ccc(Cl)c(Cl)c3)CC2)nc2ccccc12` [compound 682], 3 (Class 3: The value of percent of control at 10^−7 M was more than 60% or the value of IC50 was more than 200 nM.).
In the case of `COc1cc(NC(=S)NC[C@H]2CC[C@@H](Nc3nc(N(C)C)c4ccccc4n3)CC2)cc(OC)c1` [compound 683] it was 3 (Class 3: The value of percent of control at 10^−7 M was more than 60% or the value of IC50 was more than 200 nM.).
Take `Cc1cc(C)cc(NC(=S)NC[C@H]2CC[C@@H](Nc3nc(N(C)C)c4ccccc4n3)CC2)c1` [compound 684]: the class is listed as 3 (Class 3: The value of percent of control at 10^−7 M was more than 60% or the value of IC50 was more than 200 nM.).
Consider `CN(C)c1nc(N[C@H]2CC[C@@H](CNC(=S)Nc3cccc(OCc4ccccc4)c3)CC2)nc2ccccc12` [compound 685], for which the class was 3 (Class 3: The value of percent of control at 10^−7 M was more than 60% or the value of IC50 was more than 200 nM.).
Consider `CN(C)c1nc(N[C@H]2CC[C@@H](CNC(=S)Nc3cccc(C(=O)O)c3)CC2)nc2ccccc12` [compound 686], for which the class is given as 3 (Class 3: The value of percent of control at 10^−7 M was more than 60% or the value of IC50 was more than 200 nM.).
Turning to `Cc1ccc(NC(=S)NC[C@H]2CC[C@@H](Nc3nc(N(C)C)c4ccccc4n3)CC2)cc1Cl` [compound 687], the class is listed as 3 (Class 3: The value of percent of control at 10^−7 M was more than 60% or the value of IC50 was more than 200 nM.).
On to `COC(=O)c1cccc(NC(=S)NC[C@H]2CC[C@@H](Nc3nc(N(C)C)c4ccccc4n3)CC2)c1` [compound 688], for which the class was 3 (Class 3: The value of percent of control at 10^−7 M was more than 60% or the value of IC50 was more than 200 nM.).
